Test system: mineralocorticoid receptor
Assay: MMTV-luciferase reporter assay of mineralocorticoid receptor activity in CV-1 cells stimulated with dexamethasone
Type: cell-based
Details: 10 μg/ml compound, after 2 hours dexamethasone (1 nM), cultivated 24 hours, normalized to Renilla luciferase, FIG. 2
Experimental: RNA was separated from a CV-1 cell and PCR was performed using reverse transcriptase, so gene expressions of a glucocorticoid receptor (GR) and a mineralocorticoid receptor (MR) were confirmed, and the results are shown in FIG. 1.
The CV-1 cell was cultivated in a 24-well flat incubator. After 24 hours, the incubating medium was replaced with a 10% charcoal dextran-treated FBS-DMEM, and then after 4 hours, mixed DNA of a MMTV-luciferase reporter plasmid and an internal control group of a pRL-SV-40 plasmid was transfected using TransFast reagent (Promega). After 24 hours, it was treated with 10 μg/ml of the compound (Ramidus AB) represented by Chemical Formula 1-1, and after 2 hours, was treated with dexamethasone (1 nM), and then cultivated for 24 hours. The luciferase activity in the cell lysate was measured using a Dual-Luciferase Reporter Assay System (Promega), and the transfection efficiency was normalized by revising Renilla luciferase activity to measure a relative luciferase activity, and the results are shown in FIG. 2.

CC(C)c1ccc2c(c1)CC[C@H]1[C@@H](C)C(C(=O)O)CC[C@]21C (stereo partly shown) [Chemical Formula 1-1]
relative luciferase activity (activity of the mineralocorticoid receptor by dexamethasone): deteriorated activity of the mineralocorticoid receptor
